Patent publication US10028973B2, “Using DNA methyltransferase inhibitors to treat calcific aorta valve disease” (Mayo Foundation for Medical Education and Research, priority 2014, dated 2018)

Columns and labels:
mouse aortic valves = experiment: Acute Decitabine treatment of mice with established CAVD: gene expression in aortic valve tissue by quantitative real-time RT-PCR; type: in vivo; conditions: ldlr−/−/apoB100/100 (LA) mice on Western diet 6 months, 0.5 or 1 mg/kg/day i.p. for 5 days
Procedure: FIG. 5 is a pair of graphs plotting the effects of DNMT inhibition with decitabine (DAC) on expression of the pro-osteogenic signaling genes, Runx2 and osteopontin (SPP1), in mouse aortic valves in vivo. DAC was administered using daily intraperitoneal injections at the doses indicated (mg/kg/day) for 5 days, and gene expression was measured using quantitative real-time RT-PCR and mRNA isolated from mouse aortic valve tissue.
FIG. 6 is a graph plotting the effects of DNMT inhibition with DAC on expression of the anti-osteogenic gene, FABP4 (a PPARγ target). DAC was administered using daily intraperitoneal injections at the doses indicated (mg/kg/day) for 5 days, and gene expression was measured using quantitative real-time RT-PCR and mRNA isolated from mouse aortic valve tissue.
To determine whether acute DNA methyltransferase inhibition promotes anti-calcific gene expression patterns in mice with established calcific aortic valve disease, ldlr^−/−/apoB^100/100 (LA) mice were placed on a Western diet for 6 months (which produces mild to moderate valvular dysfunction), and treated with vehicle or Decitabine (5-aza-2′-deoxycytidine; “DAC”) for 5 days (0.5 or 1 mg/kg/day, i.p.). Changes in cardiac and aortic valve function at 3 and 6 months are evaluated. […] The second group is used for semi-quantitative histological/immunohistochemical evaluation of aortic valve (n=10). The third group is used for genome-wide evaluation of gene expression using microarrays (n=20), and the fourth group is used for high-resolution μCT scanning for quantitation of calcium burden in aortic valve and root (n=15).
Quantitative Real-Time RT-PCR: Aortic valve cusps are dissected, and tissue is processed and stored using commercially available lysis buffer with β-mercaptoethanol (Miller et al., Am J Physiol Heart Circ Physiol 298:H1600-1607, 2010). Quantitative real-time RT-PCR studies confirming array-detected changes in gene expression are performed on a StepOne Plus instrument (Applied Biosystems).

[1] = system: pig aortic valve interstitial cells; experiment: Calcium deposition in aortic valve interstitial cells in vitro; type: cell-based; conditions: FIG. 7
Text: FIG. 7 is a graph plotting the effects of DNMT inhibition with DAC calcium deposition in pig aortic valve interstitial cells in vitro.

[2] = system: hypercholesterolemic mice; experiment: Chronic low-dose Decitabine treatment: progression of aortic valve calcification and stenosis (cusp separation distance, echocardiography); type: in vivo, mouse; conditions: FIG. 8
Procedure: FIG. 8 is a graph plotting cusp separation distance in control mice and in mice treated with DAC (0.1 mg/kg i.p., 2 days/week for 3 months). […] Echocardiographic evaluation of aortic valve function: Echocardiographic evaluation of aortic valve function is conducted as described elsewhere (Miller et al. 2009, supra; Hinton et al., Am J Physiol Heart Circ Physiol 294:[…]-2488, 2008; Barrick et al., Am J Physiol Heart Circ Physiol 297:[…]-75, 2009; and Miller et al., Circ Res 108:1392-1412, 2011). In brief, a Vevo 2200 small animal ultrasound unit is used to evaluate 1) cusp separation distance from M-mode images, 2) peak transvalvular blood velocity, and 3) color Doppler screening for evidence of aortic valve regurgitation. […] Short- and long-axis views of the left ventricle also are acquired to evaluate ventricular function (Berry et al., J Cardiovasc Magn Reson 11:27, 2009).

In the case of `Nc1ncn([C@H]2C[C@H](O)[C@@H](CO)O2)c(=O)n1` [Decitabine, 5-Aza-2′-deoxycytidine], the Sp7 expression (mouse aortic valves) is reported as “dose-dependent reductions”, the Runx2 expression (mouse aortic valves; FIG. 5) is reported as “dose-dependent reductions” and the “PPARγ target gene expression (e.g., FABP4)” value (mouse aortic valves; FIG. 6) is reported as “increased PPARγ target gene expression”. The “calcification in aortic valve interstitial cells” value [1] was “reduced calcification”, the “progression of aortic valve stenosis (cusp separation distance)” value ([2]; 0.1 mg/kg i.p., 2 days/week for 3 months, larger cusp separation distance = improved valve function) was “slowed progression of aortic valve stenosis” and the “progression of aortic valve calcification and stenosis” value ([2]; low-dose, hypercholesterolemic mice in vivo) was “successfully slowed progression”.
